Paper PMC4297251 (Investigational new drugs, 2014)

Columns and labels:
clinical = settings: human, in vivo; for AUC(0-inf): AUC0→∞
[1] = system: patients with refractory solid tumors; test: Phase I dose escalation of RO4929097 with capecitabine: toxicity / DLT; format: in vivo
refractory solid tumors = test: Antitumor activity by RECIST 1.1; format: in vivo, human; settings: 30 patients, all dose levels, with capecitabine
multiple animal models = settings: oral dosing; cited from earlier work
[2] = n=30, worst grade, at least possibly related, with capecitabine

Structure (SMILES): CC(C)(C(=O)NCC(F)(F)C(F)(F)F)C(=O)N[C@@H]1C(=O)Nc2ccccc2-c2ccccc21 [RO4929097]
- Cmax (clinical; 20 mg): 358.3 ng/mL
- Half Life (clinical; 20 mg): 30.7 h
- Cmax (clinical; 20 mg, Cmax): 646 ng/mL
- half-life (clinical; 20 mg): 36.2 h
- AUC0→∞ (clinical; 30 mg): 16609.4 ng·h/mL
- Cmax (clinical; 30 mg): 668.5 ng/mL
- Vd (clinical; 30 mg): 88.7 L/h
- AUC(0-inf) (clinical; 30 mg): 25900 ng·h/mL
- Cmax (clinical; 30 mg, Cmax): 656 ng/mL
- Vd (clinical; 30 mg, Vd): 53 L
- Half Life (clinical; 45 mg): 9.5 h
- Vd (clinical; 45 mg): 118.9 L/h
- half-life (clinical; 45 mg): 17.8 h
- Vd (clinical; 45 mg, Vd): 63.3 L
- AUC0→∞ (clinical; 68 mg): 18050.7 ng·h/mL
- Cmax (clinical; 68 mg): 1011.7 ng/mL
- Half Life (clinical; 68 mg): 16.0 h
- AUC(0-inf) (clinical; 68 mg): 34400 ng·h/mL
- Cmax (clinical; 68 mg, Cmax): 1640 ng/mL
- half-life (clinical; 68 mg): 15.9 h
- AUC0→∞ (clinical; 100 mg): 32748.6 ng·h/mL
- Cl (clinical; 100 mg): 3953.9 mL/h
- Cmax (clinical; 100 mg): 1473.2 ng/mL
- Half Life (clinical; 100 mg): 19.8 h
- AUC(0-inf) (clinical; 100 mg): 51900 ng·h/mL
- clearance (clinical; 100 mg, Cl): 43.3 mL/min
- Cmax (clinical; 100 mg, Cmax): 2390 ng/mL
- half-life (clinical; 100 mg): 13.4 h
- Vd (clinical; 150 mg): 168.2 L/h
- Vd (clinical; 150 mg, Vd): 154 L
- Anemia, Grade 1 ([1]; human, in vivo): 0 n (%)
- Anemia, Grade 2 ([1]; human, in vivo): 2 (7) n (%)
- Anemia, Grade 3 ([1]; human, in vivo): 1 (3) n (%)
- Anemia, Grade 4 ([1]; human, in vivo): 0 n (%)
- Anemia, Overall ([1]; human, in vivo): 3 (10) n (%)
- Anorexia, Grade 1 ([1]; human, in vivo): 5 (17) n (%)
- Anorexia, Grade 2 ([1]; human, in vivo): 2 (7) n (%)
- Anorexia, Grade 3 ([1]; human, in vivo): 0 n (%)
- Anorexia, Grade 4 ([1]; human, in vivo): 0 n (%)
- Anorexia, Overall ([1]; human, in vivo): 7 (23) n (%)
- Chills, Grade 1 ([1]; human, in vivo): 3 (10) n (%)
- Chills, Grade 2 ([1]; human, in vivo): 0 n (%)
- Chills, Grade 3 ([1]; human, in vivo): 0 n (%)
- Chills, Grade 4 ([1]; human, in vivo): 0 n (%)
- Chills, Overall ([1]; human, in vivo): 3 (10) n (%)
- Diarrhea, Grade 1 ([1]; human, in vivo): 9 (30) n (%)
- Diarrhea, Grade 2 ([1]; human, in vivo): 4 (13) n (%)
- Diarrhea, Grade 3 ([1]; human, in vivo): 1 (3) n (%)
- Diarrhea, Grade 4 ([1]; human, in vivo): 0 n (%)
- Diarrhea, Overall ([1]; human, in vivo): 14 (47) n (%)
- Dry skin, Grade 1 ([1]; human, in vivo): 5 (17) n (%)
- Dry skin, Grade 2 ([1]; human, in vivo): 0 n (%)
- Dry skin, Grade 3 ([1]; human, in vivo): 0 n (%)
- Dry skin, Grade 4 ([1]; human, in vivo): 0 n (%)
- Dry skin, Overall ([1]; human, in vivo): 5 (17) n (%)
- Fatigue, Grade 1 ([1]; human, in vivo): 6 (20) n (%)
- Fatigue, Grade 2 ([1]; human, in vivo): 8 (27) n (%)
- Fatigue, Grade 3 ([1]; human, in vivo): 2 (7) n (%)
- Fatigue, Grade 4 ([1]; human, in vivo): 0 n (%)
- Fatigue, Overall ([1]; human, in vivo): 16 (53) n (%)
- Headache, Grade 1 ([1]; human, in vivo): 9 (30) n (%)
- Headache, Grade 2 ([1]; human, in vivo): 0 n (%)
- Headache, Grade 3 ([1]; human, in vivo): 0 n (%)
- Headache, Grade 4 ([1]; human, in vivo): 0 n (%)
- Headache, Overall ([1]; human, in vivo): 9 (30) n (%)
- Hypokalemia, Grade 1 ([1]; human, in vivo): 1 (3) n (%)
- Hypokalemia, Grade 2 ([1]; human, in vivo): 1 (3) n (%)
- Hypokalemia, Grade 3 ([1]; human, in vivo): 2 (7) n (%)
- Hypokalemia, Grade 4 ([1]; human, in vivo): 0 n (%)
- Hypokalemia, Overall ([1]; human, in vivo): 4 (13) n (%)
- Hypophosphatemia, Grade 1 ([1]; human, in vivo): 0 n (%)
- Hypophosphatemia, Grade 2 ([1]; human, in vivo): 8 (27) n (%)
- Hypophosphatemia, Grade 3 ([1]; human, in vivo): 6 (20) n (%)
- Hypophosphatemia, Grade 4 ([1]; human, in vivo): 0 n (%)
- Hypophosphatemia, Overall ([1]; human, in vivo): 14 (47) n (%)
- Nausea, Grade 1 ([1]; human, in vivo): 17 (57) n (%)
- Nausea, Grade 2 ([1]; human, in vivo): 2 (7) n (%)
- Nausea, Grade 3 ([1]; human, in vivo): 2 (7) n (%)
- Nausea, Grade 4 ([1]; human, in vivo): 0 n (%)
- Nausea, Overall ([1]; human, in vivo): 21 (70) n (%)
- Pain in legs, Grade 1 ([1]; human, in vivo): 4 (13) n (%)
- Pain in legs, Grade 2 ([1]; human, in vivo): 0 n (%)
- Pain in legs, Grade 3 ([1]; human, in vivo): 0 n (%)
- Pain in legs, Grade 4 ([1]; human, in vivo): 0 n (%)
- Pain in legs, Overall ([1]; human, in vivo): 4 (13) n (%)
- Palmar-plantar erythrodysesthesia syndrome, Grade 1 ([1]; human, in vivo): 3 (10) n (%)
- Palmar-plantar erythrodysesthesia syndrome, Grade 2 ([1]; human, in vivo): 1 (3) n (%)
- Palmar-plantar erythrodysesthesia syndrome, Grade 3 ([1]; human, in vivo): 1 (3) n (%)
- Palmar-plantar erythrodysesthesia syndrome, Grade 4 ([1]; human, in vivo): 0 n (%)
- Palmar-plantar erythrodysesthesia syndrome, Overall ([1]; human, in vivo): 5 (17) n (%)
- QTc prolongation, Grade 1 ([1]; human, in vivo): 5 (17) n (%)
- QTc prolongation, Grade 2 ([1]; human, in vivo): 1 (3) n (%)
- QTc prolongation, Grade 3 ([1]; human, in vivo): 0 n (%)
- QTc prolongation, Grade 4 ([1]; human, in vivo): 0 n (%)
- QTc prolongation, Overall ([1]; human, in vivo): 6 (20) n (%)
- Taste alteration, Grade 1 ([1]; human, in vivo): 5 (17) n (%)
- Taste alteration, Grade 2 ([1]; human, in vivo): 0 n (%)
- Taste alteration, Grade 3 ([1]; human, in vivo): 0 n (%)
- Taste alteration, Grade 4 ([1]; human, in vivo): 0 n (%)
- Taste alteration, Overall ([1]; human, in vivo): 5 (17) n (%)
- Vomiting, Grade 1 ([1]; human, in vivo): 11 (37) n (%)
- Vomiting, Grade 2 ([1]; human, in vivo): 1 (3) n (%)
- Vomiting, Grade 3 ([1]; human, in vivo): 2 (7) n (%)
- Vomiting, Grade 4 ([1]; human, in vivo): 0 n (%)
- Vomiting, Overall ([1]; human, in vivo): 14 (47) n (%)
- Weight loss, Grade 1 ([1]; human, in vivo): 3 (10) n (%)
- Weight loss, Grade 2 ([1]; human, in vivo): 1 (3) n (%)
- Weight loss, Grade 3 ([1]; human, in vivo): 0 n (%)
- Weight loss, Grade 4 ([1]; human, in vivo): 0 n (%)
- Weight loss, Overall ([1]; human, in vivo): 4 (13) n (%)
- diarrhea, patients ([1]; human, in vivo): 47%
- fatigue, patients ([1]; human, in vivo): 53%
- hypophosphatemia, patients ([1]; human, in vivo): 47%
- nausea, patients ([1]; human, in vivo): 70%
- vomiting, patients ([1]; human, in vivo): 47%
- Anemia, Grade 5 [1, 2]: 0 n (%)
- Anorexia, Grade 5 [1, 2]: 0 n (%)
- Chills, Grade 5 [1, 2]: 0 n (%)
- Diarrhea, Grade 5 [1, 2]: 0 n (%)
- Dry skin, Grade 5 [1, 2]: 0 n (%)
- Fatigue, Grade 5 [1, 2]: 0 n (%)
- Headache, Grade 5 [1, 2]: 0 n (%)
- Hypokalemia, Grade 5 [1, 2]: 0 n (%)
- Hypophosphatemia, Grade 5 [1, 2]: 0 n (%)
- Nausea, Grade 5 [1, 2]: 0 n (%)
- Pain in legs, Grade 5 [1, 2]: 0 n (%)
- Palmar-plantar erythrodysesthesia syndrome, Grade 5 [1, 2]: 0 n (%)
- QTc prolongation, Grade 5 [1, 2]: 0 n (%)
- Taste alteration, Grade 5 [1, 2]: 0 n (%)
- Vomiting, Grade 5 [1, 2]: 0 n (%)
- Weight loss, Grade 5 [1, 2]: 0 n (%)
- progressive disease as best response, patients (refractory solid tumors): 60%
- stable disease as best response, patients (refractory solid tumors; after three or more cycles): 30%
- efficacy maintained post-dosing (multiple animal models): up to 90 days
